Experimental data reported in PMC6287471 (International Journal for Parasitology: Drugs and Drug …, 2018).
Structures can show the parent of a compound that is named as a salt.

Legend:
Hco-ACC-2 WT channel [1] = target: T1, Hco-ACC-2 WT channel (Haemonchus contortus, UniProt A0A219KWM7); settings: wild-type channel; partial = maximum response lower than 100% of ACh
T1 sequence (A0A219KWM7 18-443): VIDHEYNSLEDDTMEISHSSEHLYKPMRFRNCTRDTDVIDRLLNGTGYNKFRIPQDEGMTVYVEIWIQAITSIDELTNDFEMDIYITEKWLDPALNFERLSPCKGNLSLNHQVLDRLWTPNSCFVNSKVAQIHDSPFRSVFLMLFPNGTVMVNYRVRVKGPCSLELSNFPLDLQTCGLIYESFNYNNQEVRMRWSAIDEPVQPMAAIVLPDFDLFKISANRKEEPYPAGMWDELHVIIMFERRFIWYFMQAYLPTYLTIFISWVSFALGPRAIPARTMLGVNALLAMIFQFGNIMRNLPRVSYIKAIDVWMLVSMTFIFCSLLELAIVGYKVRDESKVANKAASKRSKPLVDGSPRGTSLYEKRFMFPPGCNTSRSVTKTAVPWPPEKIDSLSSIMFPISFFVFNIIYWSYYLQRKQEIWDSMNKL

Hco-ACC-2 WT channel [2] = target: T1, Hco-ACC-2 WT channel; experiment: cell-based; settings: EC50 ± standard error, n ≥ 5 oocytes

SMILES | full or partial agonist (Hco-ACC-2 WT channel [1]) | EC50 (Hco-ACC-2 WT channel [2]) [µM]
C[N+](C)(C)CCOC(N)=O [Carbachol, Carbamoylcholine Chloride] | partial agonists | 43 ± 4
CN1CCCN=C1/C=C/c1cccs1 [Pyrantel, Pyrantel Citrate Salt] | partial agonists | 72 ± 4
C[N+](C)(C)CCO [Choline, Choline Chloride] |  | 1280 ± 35
CC(C[N+](C)(C)C)OC(N)=O (stereo not drawn) [Urecholine, Carbamyl-β-methylcholine chloride] | partial agonists | 747 ± 22
CC(=O)OC(C)C[N+](C)(C)C (stereo not drawn) [Methacholine, Acetyl-β-methylcholine Chloride] | full agonists | 100 ± 2
CC(=O)OCC[N+](C)(C)C [Acetylcholine] | full agonists | 
c1ccc([C@H]2CN3CCSC3=N2)cc1 [Levamisole, Levamisole Hydrochloride] | partial agonists | 98 ± 4
